Experimental data as given in US20040014215A1, “Synchronised arabidopsis cell suspensions and uses thereof” (priority 2000, published 2004).

Assays:
[1] = test system: Arabidopsis cell suspension MM2d; assay: Aphidicolin block/release of MM2d: proportion of G1, S and G2 cells by flow cytometry; format: cell-based, Arabidopsis thaliana
Method: The level of synchronicity of the Arabidopsis cell suspension culture MM1 was analysed by flow cytometry. The cell pellet from 5 ml of cell suspension culture was frozen in liquid nitrogen. To analyse the DNA content, the High Resolution Kit for Plant ploidy analysis (Type P) (Partec, Cat. No. 06-5-4004) was used, containing solution A (to release cell nuclei) and solution B (to stain DNA with DAPI). A sample of the frozen cell pellet was transferred into a small petri-dish (5 cm diameter), 150 μl of solution A was added, and the sample was carefully chopped with vertical motion of a sharp razor blade. An additional 150 μl of solution A was added, the cell suspension pipetted up and down for several time before leaving for approximately 2 min at RT. The released cell nuclei were filtered through a 50 μm nylon mesh (Partec, CellTrics 50 μm, Cat. No. 06-4-2317) and 1 ml of solution B was added to the filtrate. On average 8200 particles were counted with a flow cytometer (PASIII; Partec GmbH, Germany), using HBO lamp excitation (Partec, mercury lamp HBO 100 long life, 100W) and detection of emission using a blue filter. Cell cycle phases were analysed using Multicycle for Windows (Phoenix Flow Systems, San Diego, Calif.). Flow cytometry results are not corrected for the mitotic cells (which are not measured by this method).
This experiment was carried out as described for Example 1, except that cell line MM2d was used, and the culture conditions throughout the experiment were as described for MM2d in Example 1.
Synchronisation was performed as described in Example 2A, with the exception that before adding aphidicolin, 20 ml of the weekly subcultured cell suspension was transferred into 100 ml fresh MSS-medium in each of 2 separate flasks and cultivated under conditions as described in Example 1 for MM2d. […] Samples were taken at the same time frame for flow cytometry to follow cell cycle transition.
Samples were analysed by flow cytometry to determine the percentage of cells being in G1-, S- and G2M phase. The mitotic index (MI) and labelling index (LI) were independently determined (as described in Example 2A). Results are shown below in table II and in FIG. 1.
Table II. Aphidicolin block/release of Arabidopsis cell suspension MM2d. Data are shown from analysis of samples obtained in the experiment described in Example 2B.

histone H4 = assay: Northern expression analysis after aphidicolin synchronisation of MM1 (maximum signal = 100%); format: cell-based, Arabidopsis thaliana
Method: was analysed following the expression level of known cell cycle regulated genes. Synchronisation was performed as described in Example 2A, with the exception that two 7-day old cultures of the weekly sub-cultured cell suspension (210 ml each) were combined. 40 ml of combined culture was transferred into 200 ml of fresh MSS-medium in each of 10 separate flasks. After incubation for 24 hrs under conditions as described in Example 1, in the presence of 4.16 μg/ml aphidicolin, cells from 5 pooled flasks were washed through a nylon net (mesh size 47 μm) and washed with 2 litre MSS medium and shaken vigorously to remove the aphidicolin. Cells were transferred into a 50 ml plastic tube, washed again with MSS medium and centrifuged at 2500 rpm for 1 min (1075 rcf). Cells were resuspended and combined with the cells from the other 5 flasks similarly washed in a total volume of 300 ml fresh MSS-medium. 30 ml of this cell suspension was then added to 200 ml fresh MSS-medium in each of 10 separate flasks.
1) 25 ml for Northern blot (transferred into 50 ml plastic tube, centrifuged at 2500 rpm for 1 min, the supernatant discarded, and the cell pellet shock-frozen in liquid nitrogen before storing in −80° C. freezer)
Samples were collected at the time point indicated (time of removal of aphidicolin equals time point 0 hrs) and were analysed for expression of the following genes by Northern blot:
histone H4 (ID/Accession no. ATH4 GB/M17133)
For each probe the maximum hybridisation signal obtained was defined as 100%.

[2] = 0 hrs after aphidicolin removal
[3] = 2 hrs after aphidicolin removal
[4] = 4 hrs after aphidicolin removal
[5] = 6 hrs after aphidicolin removal
[6] = 8 hrs after aphidicolin removal
[7] = 10 hrs after aphidicolin removal
[8] = 12 hrs after aphidicolin removal
[9] = 14 hrs after aphidicolin removal
[10] = 16 hrs after aphidicolin removal
[11] = 18 hrs after aphidicolin removal
[12] = 20 hrs after aphidicolin removal
[13] = 22 hrs after aphidicolin removal
[14] = 24 hrs after aphidicolin removal
[15] = 26 hrs after aphidicolin removal
[16] = 28 hrs after aphidicolin removal

C[C@@]1(CO)[C@H](O)CC[C@@]2(C)[C@H]1CC[C@H]1C[C@@H]3C[C@@]12CC[C@]3(O)CO [aphidicolin]
G1 (%) MM2d ([1]; 0 h after aphidicolin removal): 46.9% | G2 (%) MM2d ([1]; 0 h after aphidicolin removal): 16.4% | S (%) MM2d ([1]; 0 h after aphidicolin removal): 36.6% | G1 (%) MM2d ([1]; 1 h after aphidicolin removal): 16.6% | G2 (%) MM2d ([1]; 1 h after aphidicolin removal): 4.9% | S (%) MM2d ([1]; 1 h after aphidicolin removal): 78.6% | G1 (%) MM2d ([1]; 2 h after aphidicolin removal): 21.5% | G2 (%) MM2d ([1]; 2 h after aphidicolin removal): 5.3% | S (%) MM2d ([1]; 2 h after aphidicolin removal): 73.2% | G1 (%) MM2d ([1]; 3 h after aphidicolin removal): 24.8% | G2 (%) MM2d ([1]; 3 h after aphidicolin removal): 11.2% | S (%) MM2d ([1]; 3 h after aphidicolin removal): 64.1% | G1 (%) MM2d ([1]; 4 h after aphidicolin removal): 18.8% | G2 (%) MM2d ([1]; 4 h after aphidicolin removal): 48.2% | S (%) MM2d ([1]; 4 h after aphidicolin removal): 33% | G1 (%) MM2d ([1]; 5 h after aphidicolin removal): 15.1% | G2 (%) MM2d ([1]; 5 h after aphidicolin removal): 74.8% | S (%) MM2d ([1]; 5 h after aphidicolin removal): 10.1% | G1 (%) MM2d ([1]; 6 h after aphidicolin removal): 12.5% | G2 (%) MM2d ([1]; 6 h after aphidicolin removal): 80.6% | S (%) MM2d ([1]; 6 h after aphidicolin removal): 6.9% | G1 (%) MM2d ([1]; 7 h after aphidicolin removal): 10.5% | G2 (%) MM2d ([1]; 7 h after aphidicolin removal): 89.5% | S (%) MM2d ([1]; 7 h after aphidicolin removal): 0% | G1 (%) MM2d ([1]; 8 h after aphidicolin removal): 9% | G2 (%) MM2d ([1]; 8 h after aphidicolin removal): 91% | S (%) MM2d ([1]; 8 h after aphidicolin removal): 0% | G1 (%) MM2d ([1]; 9 h after aphidicolin removal): 7.6% | G2 (%) MM2d ([1]; 9 h after aphidicolin removal): 92.4% | S (%) MM2d ([1]; 9 h after aphidicolin removal): 0% | G1 (%) MM2d ([1]; 10 h after aphidicolin removal): 10.1% | G2 (%) MM2d ([1]; 10 h after aphidicolin removal): 89.6% | S (%) MM2d ([1]; 10 h after aphidicolin removal): 0% | G1 (%) MM2d ([1]; 11 h after aphidicolin removal): 17.2% | G2 (%) MM2d ([1]; 11 h after aphidicolin removal): 82.8% | S (%) MM2d ([1]; 11 h after aphidicolin removal): 0% | G1 (%) MM2d ([1]; 12 h after aphidicolin removal): 27.7% | G2 (%) MM2d ([1]; 12 h after aphidicolin removal): 72.3% | S (%) MM2d ([1]; 12 h after aphidicolin removal): 0% | G1 (%) MM2d ([1]; 13 h after aphidicolin removal): 32.1% | G2 (%) MM2d ([1]; 13 h after aphidicolin removal): 67.9% | S (%) MM2d ([1]; 13 h after aphidicolin removal): 0% | G1 (%) MM2d ([1]; 14 h after aphidicolin removal): 34.3% | G2 (%) MM2d ([1]; 14 h after aphidicolin removal): 65.7% | S (%) MM2d ([1]; 14 h after aphidicolin removal): 0% | G1 (%) MM2d ([1]; 15 h after aphidicolin removal): 40.7% | G2 (%) MM2d ([1]; 15 h after aphidicolin removal): 59.3% | S (%) MM2d ([1]; 15 h after aphidicolin removal): 0% | G1 (%) MM2d ([1]; 16 h after aphidicolin removal): 34.9% | G2 (%) MM2d ([1]; 16 h after aphidicolin removal): 59.4% | S (%) MM2d ([1]; 16 h after aphidicolin removal): 5.8% | G1 (%) MM2d ([1]; 17 h after aphidicolin removal): 40.8% | G2 (%) MM2d ([1]; 17 h after aphidicolin removal): 52% | S (%) MM2d ([1]; 17 h after aphidicolin removal): 7.3% | G1 (%) MM2d ([1]; 18 h after aphidicolin removal): 40.7% | G2 (%) MM2d ([1]; 18 h after aphidicolin removal): 47.9% | S (%) MM2d ([1]; 18 h after aphidicolin removal): 11.3% | G1 (%) MM2d ([1]; 19 h after aphidicolin removal): 38.4% | G2 (%) MM2d ([1]; 19 h after aphidicolin removal): 47.3% | S (%) MM2d ([1]; 19 h after aphidicolin removal): 14.4% | G1 (%) MM2d ([1]; 20 h after aphidicolin removal): 37.7% | G2 (%) MM2d ([1]; 20 h after aphidicolin removal): 45.5% | S (%) MM2d ([1]; 20 h after aphidicolin removal): 16.9% | maximum G2 synchrony ([1]; MM2d, flow cytometry): 90% | maximum S phase synchrony ([1]; MM2d, flow cytometry): 79% | histone H4 % (histone H4; [2]): 33.81% | histone H4 Band intensity (histone H4; [2]): 1029 | histone H4 % (histone H4; [3]): 100.0% | histone H4 Band intensity (histone H4; [3]): 3046 | histone H4 % (histone H4; [4]): 84.73% | histone H4 Band intensity (histone H4; [4]): 2580 | histone H4 % (histone H4; [5]): 58.91% | histone H4 Band intensity (histone H4; [5]): 1794 | histone H4 % (histone H4; [6]): 32.42% | histone H4 Band intensity (histone H4; [6]): 987 | histone H4 % (histone H4; [7]): 38.70% | histone H4 Band intensity (histone H4; [7]): 1178 | histone H4 % (histone H4; [8]): 28.53% | histone H4 Band intensity (histone H4; [8]): 868 | histone H4 % (histone H4; [9]): 22.81% | histone H4 Band intensity (histone H4; [9]): 694 | histone H4 % (histone H4; [10]): 12.75% | histone H4 Band intensity (histone H4; [10]): 388 | histone H4 % (histone H4; [11]): 11.26% | histone H4 Band intensity (histone H4; [11]): 343 | histone H4 % (histone H4; [12]): 19.43% | histone H4 Band intensity (histone H4; [12]): 591 | histone H4 % (histone H4; [13]): 17.55% | histone H4 Band intensity (histone H4; [13]): 534 | histone H4 % (histone H4; [14]): 17.77% | histone H4 Band intensity (histone H4; [14]): 541 | histone H4 % (histone H4; [15]): 23.04% | histone H4 Band intensity (histone H4; [15]): 701 | histone H4 % (histone H4; [16]): 14.35% | histone H4 Band intensity (histone H4; [16]): 437
